pIC50: −log10 of the molar value.
Target: T1, H^+ /K^+ -ATPase (Sus scrofa, UniProt P19156)
T1 construct: a microsome fraction prepared from porcine gastric mucosa was used as a standard enzyme; from tissue; host or cells: porcine gastric mucosa, microsome fraction
Experiment: Inhibitory Action on H^+ /K^+ -ATPase Activity
Format: biochemical
Conditions: microsome fraction from porcine gastric mucosa, pH7.4, 37° C., 30 min preincubation, 15 min reaction
Experimental: Inhibitory Action on H^+ /K^+ -ATPase Activity
According to the method of Hongo et al. [The Japanese Journal of Pharmacology, 52, p295, (1990)], a microsome fraction prepared from porcine gastric mucosa was used as a standard enzyme. The standard enzyme (10-20lig protein) and the test compound (0.1-100 μM) dissolved in dimethylsulfoxide was incubated at 37° C. for 30 minutes in the 50 mM Tris-acetate buffer (pH7.4, containing 2 mM magnesium chloride, 5 mM potassium chloride). The enzyme reaction was started by adding adenosinetriphosphate (ATP). Tris at the final concentration of 2 mM, and the reaction was kept at 37° C. for 15 minutes. The reaction was stopped by adding chilled 10% trichloroacetic acid. Inorganic phosphate released during the reaction was calorimetrically determined according to the method of Fiske-Subbarow [The Journal of Biological Chemistry, 66, p375, (1925)]. H^+ /K^+ -ATPase activity was determined by the difference of the enzyme activities under the conditions with or without potassium chloride. The inhibitory activities of test compounds were determined as the 50% inhibitory concentration (IC50 value) from reaction-concentration curve, and the results are shown in Table 3.

T1 sequence (P19156 2-1034 limits assumed): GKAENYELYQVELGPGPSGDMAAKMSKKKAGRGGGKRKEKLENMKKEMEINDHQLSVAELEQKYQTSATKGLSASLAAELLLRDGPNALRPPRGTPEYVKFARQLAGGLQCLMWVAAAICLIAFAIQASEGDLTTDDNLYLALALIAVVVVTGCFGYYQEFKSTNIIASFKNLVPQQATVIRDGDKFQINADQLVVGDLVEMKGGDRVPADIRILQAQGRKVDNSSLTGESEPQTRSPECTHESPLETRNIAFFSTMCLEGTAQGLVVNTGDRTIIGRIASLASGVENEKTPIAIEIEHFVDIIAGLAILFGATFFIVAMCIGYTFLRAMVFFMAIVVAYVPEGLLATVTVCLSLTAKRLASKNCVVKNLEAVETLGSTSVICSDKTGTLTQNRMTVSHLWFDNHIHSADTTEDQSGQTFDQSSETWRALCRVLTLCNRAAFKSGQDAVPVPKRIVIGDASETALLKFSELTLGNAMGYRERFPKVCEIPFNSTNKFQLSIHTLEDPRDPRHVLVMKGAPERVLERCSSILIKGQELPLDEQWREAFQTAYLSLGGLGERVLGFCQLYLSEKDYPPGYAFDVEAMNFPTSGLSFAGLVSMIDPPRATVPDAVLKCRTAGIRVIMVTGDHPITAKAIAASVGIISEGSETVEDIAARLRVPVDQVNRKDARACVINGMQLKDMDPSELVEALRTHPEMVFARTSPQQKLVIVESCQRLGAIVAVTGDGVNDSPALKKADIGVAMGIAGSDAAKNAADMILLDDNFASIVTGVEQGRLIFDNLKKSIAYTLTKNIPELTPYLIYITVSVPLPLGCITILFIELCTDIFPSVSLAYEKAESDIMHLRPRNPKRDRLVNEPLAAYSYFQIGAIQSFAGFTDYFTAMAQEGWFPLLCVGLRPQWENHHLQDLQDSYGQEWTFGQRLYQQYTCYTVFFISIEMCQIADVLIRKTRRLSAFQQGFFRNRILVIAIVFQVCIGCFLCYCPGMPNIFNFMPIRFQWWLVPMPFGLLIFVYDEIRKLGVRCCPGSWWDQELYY
T1 sequence (P18434 whole entry partner): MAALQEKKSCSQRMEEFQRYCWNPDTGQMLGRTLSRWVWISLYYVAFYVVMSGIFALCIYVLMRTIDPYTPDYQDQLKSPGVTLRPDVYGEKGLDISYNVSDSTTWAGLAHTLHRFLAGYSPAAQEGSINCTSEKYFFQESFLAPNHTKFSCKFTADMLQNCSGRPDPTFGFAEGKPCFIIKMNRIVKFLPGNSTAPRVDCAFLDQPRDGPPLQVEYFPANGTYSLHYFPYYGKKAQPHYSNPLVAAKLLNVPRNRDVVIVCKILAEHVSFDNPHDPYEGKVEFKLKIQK

pIC50 | Compound
5.15 | CCN(CCCSC)c1c(-c2ccccc2C)nc2c3ccccc3ccn12 [Compound 214, 3-[N-Ethyl-N-(3-methylthiopropyl)amino]-^2-(2-methylphenyl)imidazo[2,1-a]isoquinoline]
5.35 | C=CCN(CC=C)c1c(-c2ccccc2C)nc2c3ccccc3ccn12 [Compound 223, 3-diallylamino-2-(2-methylphenyl)imidazo[2,1-a]isoquinoline]
5.12 | Cc1ccccc1-c1nc2c3ccsc3ccn2c1N [Compound 234, 3-Amino-2-(2-methylphenyl)imidazo[1,2-a]thieno[3,2-c]pyridine]
5.35 | Cc1sccc1-c1nc2c3ccsc3ccn2c1N [Compound 254, 3-Amino-2-(2-methyl-3-thienyl)imidazo[1,2-a]thieno[3,2-c]pyridine]
5.18 | Cc1sccc1-c1nc2c3ccsc3cc(C)n2c1N [Compound 255, 3-Amino-5-methyl-2-(2-methyl-3-thienyl)imidazo[1,2-a]thieno[3,2-c]pyridine]
5.28 | Cc1cc(-c2nc3c4ccsc4ccn3c2N)c(C)o1 [Compound 271, 3-Amino-2-(2,5-dimethyl-3-furyl)imidazo[1,2-a]thieno[3,2-c]pyridine]
5.32 | Cc1ccccc1-c1nc2c3ccn(C)c3ccn2c1N [Compound 291, 3-Amino-7-methyl-2-(2-methylphenyl)imidazo[1,2-a]pyrrolo[3,2-c]pyridine]
4.48 | CCNc1c(-c2ccccc2C)nc2c3ccsc3ccn12 [Compound 340, 3-Ethylamino-2-(2-methylphenyl)imidazo[1,2-a]thieno[3,2-c]pyridine]

Compound | pIC50
CCc1ccccc1-c1nc2c3ccccc3ccn2c1N(CC)CCC(C)C [Compound 216, 3-(N-Ethyl-N-isopentylamino)-2-(2-ethylphenyl)imidazo[2,1-a]isoquinoline] | 5.60
Cc1ccccc1-c1nc2c3ccccc3ccn2c1N1CCCCC1 [Compound 217, 2-(2-Methylphenyl)-3-piperidinoimidazo[2,1-a]isoquinoline] | 5.33
Cc1ccccc1-c1nc2c3ccsc3cc(C)n2c1N [Compound 236, 3-Amino-5-methyl-2-(2-methylphenyl)imidazo[1,2-a]thieno[3,2-c]pyridine] | 5.33
Cc1ccccc1-c1nc2c3sccc3ccn2c1N [Compound 310, 3-Amino-2-(2-methylphenyl)imidazo[1,2-a]thieno[2,3-c]pyridine] | 4.59

Test system: gastric acid secretion
Experiment: Inhibition of Gastric Acid Secretion Observed Under Acute Fistula Method
Format: in vivo, male Wistar rats
Conditions: Rattus norvegicus; 30 mg/kg intraduodenally, rats, histamine 10 mg/kg s.c., cumulative 2 h
Experimental: Inhibition of Gastric Acid Secretion Observed Under Acute Fistula Method
Male Wistar rats (6-8 weeks) fasted for 24 hours (water ad libitum) were used. The rats were anesthetized by intraperitoneal administration of 1.25 g/kg of urethane. The abdomen was incised, and acute gastric fistula was connected to the stomach. Two ml of saline was injected into the stomach, and recovered every 20 minutes. The gastric acid secretion was determined by titrating of gastric juice by 150 mM sodium hydroxide up to pH7.0 using an autotitrator. Test compounds (30 mg/kg) suspended in a 0.5% aqueous sodium carboxymethylcellulose (CMC-Na) solution were administered intraduodenally. After 1 hour, gastric acid secretion was stimulated by subcutaneous administration of histamine dihydrochloride dissolved in saline (10 mg/kg). Inhibition (%) of gastric acid secretion was determined by calculating cumulative amount of the acid secretion during two hours after histamine stimulation and then comparing the cumulative amount with that in the control group. In the control group, only 0.5% aqueous CMC-Na solution was administered intraduodenally.

Compound | inhibition in vivo at 30 mg/kg
CCN(CCOC)c1c(-c2ccccc2C)nc2c3ccccc3ccn12 [Compound 205, 3-[N-Ethyl-N-(2-methoxyethyl)amino]-2-(2-methylphenyl)imidazo[2,1-a]isoquinoline] | 86%
CCN(CCCSC)c1c(-c2ccccc2C)nc2c3ccccc3ccn12 [Compound 214, 3-[N-Ethyl-N-(3-methylthiopropyl)amino]-^2-(2-methylphenyl)imidazo[2,1-a]isoquinoline] | 56%
C=CCN(CC=C)c1c(-c2ccccc2C)nc2c3ccccc3ccn12 [Compound 223, 3-diallylamino-2-(2-methylphenyl)imidazo[2,1-a]isoquinoline] | 60.1%

Test system: gastric acid secretion
Experiment: Inhibition of Gastric Acid Secretion Observed Under Stomach Perfusion Method
Format: in vivo, male Sprague Dawrey rats
Conditions: Rattus norvegicus, ip, 1 h; rats, histamine i.v. 8 mg/kg/hr, inhibition one hour after administration (1-10 mg/kg, "intrapenetorially"); read-out: ID50 (dose showing 50% inhibition of acid secretion)
Experimental: Inhibition of Gastric Acid Secretion Observed Under Stomach Perfusion Method
Male Sprague Dawrey rats (6-7weeks) fasted for 24 hours were used (water ad libitum). The rats were anesthetized by intraperitoneal administration of 1.25 g/kg of urethane. The abdomen was incised, and gastral cavity was perfused with saline during experiment. The perfusate was titrated by 10 mM sodium hydroxide up to pH5.5 using an autotitrator in accordance with Stat-method. Gastric acid secretion was stimulated by intravenous administration of histamine dihydrochloride (8 mg/kg/hr). Two hours after histamine stimulation, a test compound 1-10 mg/kg) was administered intrapenetorially. The test compound was mixed with small amount of polysorbate-80, and the mixture was suspended in saline. The test compound was evaluated using ID50 (dose showing 50% inhibition of acid secretion) which was calculated based on inhibition of the acid secretion observed one hour after administration of the compound.

Compound | ED50
Cc1ccccc1-c1nc2c3ccsc3ccn2c1N [Compound 234, 3-Amino-2-(2-methylphenyl)imidazo[1,2-a]thieno[3,2-c]pyridine] | 1.8 mg/kg
Cc1ccccc1-c1nc2c3ccsc3cc(C)n2c1N [Compound 236, 3-Amino-5-methyl-2-(2-methylphenyl)imidazo[1,2-a]thieno[3,2-c]pyridine] | 1.4 mg/kg
Cc1sccc1-c1nc2c3ccsc3ccn2c1N [Compound 254, 3-Amino-2-(2-methyl-3-thienyl)imidazo[1,2-a]thieno[3,2-c]pyridine] | 1.1 mg/kg
Cc1sccc1-c1nc2c3ccsc3cc(C)n2c1N [Compound 255, 3-Amino-5-methyl-2-(2-methyl-3-thienyl)imidazo[1,2-a]thieno[3,2-c]pyridine] | 1 mg/kg
Cc1cc(-c2nc3c4ccsc4ccn3c2N)c(C)o1 [Compound 271, 3-Amino-2-(2,5-dimethyl-3-furyl)imidazo[1,2-a]thieno[3,2-c]pyridine] | 2.4 mg/kg
Cc1ccccc1-c1nc2c3ccn(C)c3ccn2c1N [Compound 291, 3-Amino-7-methyl-2-(2-methylphenyl)imidazo[1,2-a]pyrrolo[3,2-c]pyridine] | 6.4 mg/kg
Cc1ccccc1-c1nc2c3sccc3ccn2c1N [Compound 310, 3-Amino-2-(2-methylphenyl)imidazo[1,2-a]thieno[2,3-c]pyridine] | 3 mg/kg
CCNc1c(-c2ccccc2C)nc2c3ccsc3ccn12 [Compound 340, 3-Ethylamino-2-(2-methylphenyl)imidazo[1,2-a]thieno[3,2-c]pyridine] | 4.9 mg/kg

Test system: ethanol-induced gastric lesion
Experiment: Inhibition of Ethanol-induced Gastric Lesion (Protection of gastric mucosa)
Format: in vivo, male Wister rats
Conditions: Rattus norvegicus, po, 1 h; 30 mg/kg orally, rats, ethanol 0.5 ml/100 g
Experimental: Inhibition of Ethanol-induced Gastric Lesion (Protection of gastric mucosa)
Male Wister rats (6-7weeks, 5 rats per group) fasted for 24 hours were used (water ad libitum). Test compound (30 mg/kg) suspended in 0.5% aqueous CMC-Na solution was orally administered. In the control group, only 0.5% aqueous CMC-Na solution was administered. Thirty minutes after administration, 0.5 ml/100 g body weight of ethanol was orally administered to cause gastric lesion. After one hour, the rat was killed by excessive amount of ether, and the stomach was removed and fixed with 2% formalin. After fixation, the stomach was dissected along the large curvature. The size of each of mucosal lesions was measured under dissecting microscope, and the total size of the lesions per rat was determined and used as ulcer index (mm). Inhibition of gastric lesion was determined by comparing the ulcer index in the control group and test group.

Compound | inhibition in vivo at 30 mg/kg
CCN(CCOC)c1c(-c2ccccc2C)nc2c3ccccc3ccn12 [Compound 205, 3-[N-Ethyl-N-(2-methoxyethyl)amino]-2-(2-methylphenyl)imidazo[2,1-a]isoquinoline] | 98.6%
CCc1ccccc1-c1nc2c3ccccc3ccn2c1N(CC)CCC(C)C [Compound 216, 3-(N-Ethyl-N-isopentylamino)-2-(2-ethylphenyl)imidazo[2,1-a]isoquinoline] | 81.7%
Cc1ccccc1-c1nc2c3ccsc3cc(C)n2c1N [Compound 236, 3-Amino-5-methyl-2-(2-methylphenyl)imidazo[1,2-a]thieno[3,2-c]pyridine] | 91.5%
Cc1sccc1-c1nc2c3ccsc3ccn2c1N [Compound 254, 3-Amino-2-(2-methyl-3-thienyl)imidazo[1,2-a]thieno[3,2-c]pyridine] | 92.4%
Cc1cc(-c2nc3c4ccsc4ccn3c2N)c(C)o1 [Compound 271, 3-Amino-2-(2,5-dimethyl-3-furyl)imidazo[1,2-a]thieno[3,2-c]pyridine] | 99.5%

Test system: not given
Experiment: not given
Parameters: species or system male ICR mice
Conditions: mouse, in vivo, po, 10080 min
Experimental: Male ICR mice (6 weeks, 3 mice per group) fasted for 16 hours were used ad libitum). A test compound suspended in 5% aqueous gum arabic solution was orally administered. After administration, mortality of the animals observed during 7 days and approximate lethal dose was determined.

Compound | Approximate lethal dose
CCN(CCOC)c1c(-c2ccccc2C)nc2c3ccccc3ccn12 [Compound 205, 3-[N-Ethyl-N-(2-methoxyethyl)amino]-2-(2-methylphenyl)imidazo[2,1-a]isoquinoline] | > 2,000 mg/kg
CCc1ccccc1-c1nc2c3ccccc3ccn2c1N(CC)CCC(C)C [Compound 216, 3-(N-Ethyl-N-isopentylamino)-2-(2-ethylphenyl)imidazo[2,1-a]isoquinoline] | > 2,000 mg/kg
Cc1ccccc1-c1nc2c3ccccc3ccn2c1N1CCCCC1 [Compound 217, 2-(2-Methylphenyl)-3-piperidinoimidazo[2,1-a]isoquinoline] | > 2,000 mg/kg
Cc1ccccc1-c1nc2c3ccsc3cc(C)n2c1N [Compound 236, 3-Amino-5-methyl-2-(2-methylphenyl)imidazo[1,2-a]thieno[3,2-c]pyridine] | > 2,000 mg/kg
Cc1ccccc1-c1nc2c3sccc3ccn2c1N [Compound 310, 3-Amino-2-(2-methylphenyl)imidazo[1,2-a]thieno[2,3-c]pyridine] | > 2,000 mg/kg
